Read-outs that look alike come from different tables or passages of the source.
Legend:
[1] = target: T1, hNKCC1A (Homo sapiens, UniProt P55011); experiment: 86Rb+ uptake in hNKCC1A-expressing Xenopus laevis oocytes; format: cell-based; conditions: 86Rb+ uptake, Xenopus oocytes, 5 min, corrected for uninjected oocytes; median and range of 3–7 experiments
T1 construct: Full-length NKCC1 (NKCC1A) comprises ~1200 amino acids; expressed in transfected cells; host or cells: Xenopus laevis oocytes injected with cRNA (pXOOM vector)
T1 sequence (P55011 1-1212): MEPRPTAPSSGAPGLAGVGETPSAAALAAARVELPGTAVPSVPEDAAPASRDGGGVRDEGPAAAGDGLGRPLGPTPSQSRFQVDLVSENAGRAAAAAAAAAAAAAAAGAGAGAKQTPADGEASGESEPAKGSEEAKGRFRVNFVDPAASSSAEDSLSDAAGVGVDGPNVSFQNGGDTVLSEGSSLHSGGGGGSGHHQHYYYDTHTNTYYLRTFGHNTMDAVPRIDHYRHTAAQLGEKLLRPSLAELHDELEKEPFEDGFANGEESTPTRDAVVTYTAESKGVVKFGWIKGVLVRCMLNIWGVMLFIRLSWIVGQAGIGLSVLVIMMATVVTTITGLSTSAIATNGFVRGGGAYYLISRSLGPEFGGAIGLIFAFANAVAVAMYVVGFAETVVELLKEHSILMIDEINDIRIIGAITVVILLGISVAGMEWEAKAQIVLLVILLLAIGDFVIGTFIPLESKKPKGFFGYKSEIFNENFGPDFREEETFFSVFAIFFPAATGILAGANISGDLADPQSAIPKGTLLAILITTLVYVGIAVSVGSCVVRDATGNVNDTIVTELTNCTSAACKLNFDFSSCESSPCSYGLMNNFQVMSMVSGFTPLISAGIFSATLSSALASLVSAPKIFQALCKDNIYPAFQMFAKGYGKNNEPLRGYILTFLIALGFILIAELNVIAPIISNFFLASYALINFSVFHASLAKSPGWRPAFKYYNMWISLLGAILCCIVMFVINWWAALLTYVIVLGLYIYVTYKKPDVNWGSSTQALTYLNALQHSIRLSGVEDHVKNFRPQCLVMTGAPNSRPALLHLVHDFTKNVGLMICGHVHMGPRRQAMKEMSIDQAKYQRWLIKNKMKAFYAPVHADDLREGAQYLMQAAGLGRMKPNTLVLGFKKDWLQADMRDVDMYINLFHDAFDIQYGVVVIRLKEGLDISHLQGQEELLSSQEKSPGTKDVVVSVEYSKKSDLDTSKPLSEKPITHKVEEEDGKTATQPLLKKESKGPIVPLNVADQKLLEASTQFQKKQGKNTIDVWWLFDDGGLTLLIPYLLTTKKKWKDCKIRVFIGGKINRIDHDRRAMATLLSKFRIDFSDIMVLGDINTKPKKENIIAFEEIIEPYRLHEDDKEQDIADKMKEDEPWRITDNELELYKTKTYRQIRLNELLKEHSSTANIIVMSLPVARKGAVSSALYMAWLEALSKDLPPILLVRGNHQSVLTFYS
Procedure: The oocytes were kept in Kulori medium (in mM: 90 NaCl, 1 KCl, 1 CaCl2, 1 MgCl2, 5 Hepes, pH 7.4, 182 mOsm) for 5–6 days at 19 °C prior to experiments.
To activate NKCC1A and NKCC1B prior to the ^86Rb^+ uptake measurements aimed at measuring NKCC-mediated fluxes, hNKCC1A- or hNKCC1B-expressing oocytes or uninjected control oocytes (4–13 oocytes per well) were pre-incubated for 30 min at room temperature in a K^+-free solution (containing in mM: 5 choline chloride, 95 NaCl, 1 MgCl2, 1 CaCl2, 10 Hepes, pH 7.4, 207 mOsm), which causes shrinkage of the oocyte and thus activation of NKCC1A[22]. […] The radioactivity was determined by liquid scintillation β-counting with Aquasafe 300 Plus scintillation cocktail (Zinsser Analytic GmbH, Frankfurt, Germany) using a Microbeta Trilux (Perkin Elmer). hNKCC1-mediated K^+ uptake was assessed as ([fluxNKCC1-expressing oocytes in presence of x µM drug]−[fluxuninjected oocytes in presence of x µM drug]), in order to correct for endogenous NKCC activity. […]
Significance of differences in transport activity of hNKCC1A or hNKCC1B expressing oocytes vs. uninjected oocytes were analyzed by the Kruskal-Wallis test followed by Dunn’s multiple comparisons test. […]

[2] = system: NKCC1; conditions: Activated state; isoforms not differentiated; turkey erythrocytes; mIMCD-K2 cells; chick cardiac cells; winter flounder intestine; rat erythrocytes and thymocytes; ref Palfrey et al.[48]; Schlatter et al.[23]; Frelin et al.[49]; O’Grady et al.[50]; Glanville et al.[51]; Hannaert et al.[52]; cited from earlier work
[3] = system: hNKCC2 isoform A; conditions: Xenopus oocytes; ref Payne et al.[57]; Isenring et al.[58]; Plata et al.[59]; Carota et al.[56]; Lykke et al.[60]; Lykke et al.[29]; read-out: IC50 (µM) NKCC2 (hA); cited from earlier work
[4] = system: hNKCC2 isoform B; conditions: Xenopus oocytes; ref Payne et al.[57]; Isenring et al.[58]; Plata et al.[59]; Carota et al.[56]; Lykke et al.[60]; Lykke et al.[29]; read-out: IC50 (µM) NKCC2 (hB); cited from earlier work
[5] = system: hNKCC2 isoform F; conditions: Xenopus oocytes; ref Payne et al.[57]; Isenring et al.[58]; Plata et al.[59]; Carota et al.[56]; Lykke et al.[60]; Lykke et al.[29]; read-out: IC50 (µM) NKCC2 (hF); cited from earlier work
[6] = system: mNKCC2 isoform A; design: method as in ref Payne et al.[57]; Isenring et al.[58]; Plata et al.[59]; Carota et al.[56]; Lykke et al.[60]; Lykke et al.[29]; conditions: Xenopus oocytes; ref Payne et al.[57]; Isenring et al.[58]; Plata et al.[59]; Carota et al.[56]; Lykke et al.[60]; Lykke et al.[29]; read-out: IC50 (µM) NKCC2 (mA); cited from earlier work
[7] = system: mNKCC2 isoform F; design: method as in ref Payne et al.[57]; Isenring et al.[58]; Plata et al.[59]; Carota et al.[56]; Lykke et al.[60]; Lykke et al.[29]; conditions: Xenopus oocytes; ref Payne et al.[57]; Isenring et al.[58]; Plata et al.[59]; Carota et al.[56]; Lykke et al.[60]; Lykke et al.[29]; read-out: IC50 (µM) NKCC2 (mF); cited from earlier work
[8] = target: T1, hNKCC1A; design: method as in ref Payne et al.[57]; Isenring et al.[58]; Plata et al.[59]; Carota et al.[56]; Lykke et al.[60]; Lykke et al.[29]; conditions: Xenopus oocytes; activated state; ref Payne et al.[57]; Isenring et al.[58]; Plata et al.[59]; Carota et al.[56]; Lykke et al.[60]; Lykke et al.[29]; read-out: IC50 (µM) NKCC1 (hA); cited from earlier work
[9] = design: method as in DrugBank database; conditions: ref DrugBank database; cited from earlier work

In the case of `CCCCNc1cc(C(=O)O)cc(S(N)(=O)=O)c1Oc1ccccc1` [Bumetanide], the IC50 [1] is listed as 0.945 µM, the IC50 [2] is listed as 0.25 to 0.6 µM and the IC50 [3] is listed as 0.54 to 4 µM. For the same molecule, the IC50 [4] was 0.22 µM, the IC50 [5] was 0.16 µM and the IC50 [6] was 2 µM. The IC50 [7] was 3.4 µM, the IC50 [8] was 0.68 µM and the “Lipophilicity (logP)” value [9] was 2.7.

Reference: paper PMC6026185 (Scientific Reports, 2018)
